The results in this text go back to ChEMBL document CHEMBL2074033, “In vivo imaging of hepatobiliary transport function mediated by multidrug resistance associated protein and P-glycoprotein” (Cancer Chemother Pharmacol, 2004).

This data set has as its target ATP-dependent translocase ABCB1 (Homo sapiens, UniProt P08183). In words: TP_TRANSPORTER: cell accumulation in GLP4/P-gp cells. In kind it is functional, cell-based.

ATP-dependent translocase ABCB1, sequence (P08183 whole entry): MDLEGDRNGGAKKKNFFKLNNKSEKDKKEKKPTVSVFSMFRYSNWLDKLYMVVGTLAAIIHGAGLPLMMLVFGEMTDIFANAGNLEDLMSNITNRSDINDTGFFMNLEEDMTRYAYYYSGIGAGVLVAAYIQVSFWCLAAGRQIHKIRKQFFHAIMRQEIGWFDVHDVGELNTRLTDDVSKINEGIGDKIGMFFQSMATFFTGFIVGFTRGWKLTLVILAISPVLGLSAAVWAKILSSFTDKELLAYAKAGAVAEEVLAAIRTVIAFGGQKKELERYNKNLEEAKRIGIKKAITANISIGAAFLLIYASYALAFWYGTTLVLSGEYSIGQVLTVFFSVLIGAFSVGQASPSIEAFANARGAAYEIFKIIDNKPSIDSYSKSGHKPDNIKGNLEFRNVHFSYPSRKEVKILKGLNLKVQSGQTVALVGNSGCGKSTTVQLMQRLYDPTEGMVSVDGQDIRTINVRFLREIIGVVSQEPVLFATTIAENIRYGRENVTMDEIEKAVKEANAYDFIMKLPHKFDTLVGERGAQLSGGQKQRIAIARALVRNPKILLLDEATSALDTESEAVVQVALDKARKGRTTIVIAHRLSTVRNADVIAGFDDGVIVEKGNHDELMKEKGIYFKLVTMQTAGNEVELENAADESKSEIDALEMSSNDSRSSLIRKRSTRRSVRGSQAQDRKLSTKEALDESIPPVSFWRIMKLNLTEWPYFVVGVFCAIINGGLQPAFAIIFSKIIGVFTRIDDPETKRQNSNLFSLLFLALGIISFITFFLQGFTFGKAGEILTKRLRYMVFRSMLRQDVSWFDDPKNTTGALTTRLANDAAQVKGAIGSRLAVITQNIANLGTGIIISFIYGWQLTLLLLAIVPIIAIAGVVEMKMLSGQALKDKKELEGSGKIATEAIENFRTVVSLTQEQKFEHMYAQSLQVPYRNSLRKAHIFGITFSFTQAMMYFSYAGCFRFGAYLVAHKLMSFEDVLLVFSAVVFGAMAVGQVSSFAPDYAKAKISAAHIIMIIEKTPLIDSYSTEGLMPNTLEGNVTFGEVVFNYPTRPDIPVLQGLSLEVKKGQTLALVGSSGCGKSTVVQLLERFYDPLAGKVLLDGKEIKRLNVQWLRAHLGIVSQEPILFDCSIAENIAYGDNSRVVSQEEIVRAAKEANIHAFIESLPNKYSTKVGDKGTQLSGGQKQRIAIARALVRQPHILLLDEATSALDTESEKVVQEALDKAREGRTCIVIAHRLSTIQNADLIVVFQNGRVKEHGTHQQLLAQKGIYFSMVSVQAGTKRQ

With TECHNETIUM TC 99M DISOFENIN, the Activity entry is “is not a substrate [-]”.
